Test results: PMC9860708, “Parent-Metabolite Pharmacokinetic Modeling of Formononetin and Its Active Metabolites in Rats after Oral Administration of Formononetin Formulations” (Pharmaceutics, 2022)
Read-outs that look alike come from different tables or passages of the source.

How the values were obtained:
[1] = Plasma protein binding assay (ultrafiltration, Centrifree); assay type: in vitro ADME; settings: male SD rat plasma, n = 3
Procedure: The plasma protein binding of FMN, DZN, DHD and EQL was estimated using Ultra-filtration method using Centrifree® micro-partition system (Amicon Inc., Lexington, MA, USA). The experiment was conducted at concentrations of 50, 150, 500 and 1000 ng/mL (n = 3) for all four compounds in male SD rat plasma. The spiked plasma samples were allowed to equilibrate for at least 15 min before it was put into Centrifree® ultrafiltration tubes. The tubes were centrifuged at 1000× g for 15 min at 37 °C. Then, compound concentrations in the ultrafiltrate buffer (CUF) and plasma in the sample reservoir (Ctotal) were quantitated by the anlytical method described in Section 2.3. The plasma protein binding rate was calculated using the following formula: Plasma protein binding (%)=[…]

[2] = Pharmacokinetic evaluation after oral administration of FMN solution and formulations (non-compartmental analysis); settings: 20 mg/kg FMN, all three groups
Procedure: The animals were maintained in the temperature and humidity range of 25 ± 1 °C and 50 ± 5% RH, respectively, over the acclimation period. To minimize the effects of food on pharmacokinetic profile of isoflavones, the animals were fasted overnight with free access to water.
Animals were allocated equally into 3 groups (5 rats per group). […] The blood samples were immediately centrifuged (10,000× g, 10 min, 4 °C) to obtain plasma samples and was stored at −80 °C.
Determination of the four isoflavones and DZN-d4 (internal standard, IS) in samples were conducted using Acquity UPLC system (Waters Corp., Milford, MA, USA) coupled to Xevo TQ-S triple quadrupole mass spectrometry (Waters Corp., USA) with electrospray (ESI) source. The chromatographic separations of the four isoflavones was performed in a Kinetex C18 column (2.1 × 100 mm, 1.7 μm particle size, Phenomenex, Torrance, CA, USA) at 40 ± 0.5 °C. The mobile phase consisted of water (mobile phase A) and acetonitrile (mobile phase B) with gradient elution at a flow rate of 0.2 mL/min. […] The optimized collision energy of FMN, DZN, DHD, EQL and IS were −22, −38, −22, −15 and −38, respectively. Data acquisition and analysis were achieved using Masslynx 4.1 software (Waters Corp., USA).
The samples were extracted by protein precipitation using methanol. 50 μL of rat samples were added with 10 μL of the IS solution (10 μg/mL of DZN-d4 in 50% methanol) to correct the loss of analytes during sample preparation. 100 μL of methanol was added to the mixed sample, vortexed for 1 min and centrifuged at 15,000× g for 5 min. Then, 5 μL of aliquots were injected into the UPLC-MS/MS system. The method validation was performed according to the FDA guideline for industry bioanalytical method validation.
PK parameters such as the maximum plasma concentration (Cmax) and the time to reach Cmax (Tmax) were determined from plasma concentration-time curve. The linear trapezoidal rule was used to calculate area under the curve to the final measured concentration (AUC0-t), then area from Clast to area expolated to infinity was added to AUC0-t to integrate AUC0-∞. […] The PK analysis was performed using WinNonlin® software (version 8.2, Certara™ Company, Princeton, NJ, USA). Then, a PK model was developed for FMN and its metabolites following oral administration of solution or formulations. The model was implemented in the WinNonlin model with NLME engine and estimated using the naïve-pooled and First Order Conditional Estimation-Extended Least Squares (FOCE-ELS) algorithms. […]

[3] = test system: human serum albumin; settings: concentration levels of 3–15 μM DZN, ref Song et al. 23; cited from earlier work
[4] = cited from earlier work
[5] = parameters: method as in PMID 21266188; settings: female rat plasma, cited from earlier work
[6] = parameters: method as in PMID 12714433; settings: humans; cited from earlier work
[7] = oral 20 mg/kg FMN dissolved in 0.5% CMC-Na, male Sprague Dawley rats

| fraction unbound at 15 min, 50 ng/mL [1] | fraction unbound at 15 min, 150 ng/mL [1] | fraction unbound at 15 min, 500 ng/mL [1] | fraction unbound at 15 min, 1000 ng/mL [1] | Detection of analyte in rat plasma after oral administration of FMN [2] | SMILES | unbound DZN [3] | Time at which the peak plasma concentration was reached ([4]; 2–50 mg/kg FMN orally administered, rats) | oral bioavailability (F) ([4]; FMN solution dissolved in 0.5% CMC-Na, rats) | clearance of FMN ([4]; intravenous administration, rats) | AUCinf [4, 7] | Cmax [4, 7] | Plasma protein binding ([5]; 50 ng/mL) | Plasma protein binding ([5]; 150 ng/mL) | FMN excreted intact [6] |
| --- | --- | --- | --- | --- | --- | --- | --- | --- | --- | --- | --- | --- | --- | --- |
| 0.118 | 0.126 | 0.12 | 0.132 | not quantitated | O=C1c2ccc(O)cc2OCC1c1ccc(O)cc1 (stereo not shown) [DHD, Dihydrodaidzein] | – | – | – | – | – | – | – | – | – |
| – | 0.0131 | 0.0138 | 0.022 | not quantitated | Oc1ccc([C@H]2COc3cc(O)ccc3C2)cc1 [EQL, Equol] | – | – | – | – | – | – | – | – | – |
| 0.116 | 0.0664 | 0.145 | 0.082 | detected | COc1ccc(-c2coc3cc(O)ccc3c2=O)cc1 [FMN, Formononetin] | – | 0.5 to 1 h | 21.8% | 83 mL/min/kg | 0.7577 ± 0.0482 µM·h | 302 ± 35.9 nM | 93.61 ± 0.44% | 96.14 ± 0.15% | about 25% |

| SMILES | fraction unbound at 15 min, 50 ng/mL [1] | fraction unbound at 15 min, 150 ng/mL [1] | fraction unbound at 15 min, 500 ng/mL [1] | fraction unbound at 15 min, 1000 ng/mL [1] | Detection of analyte in rat plasma after oral administration of FMN [2] | unbound DZN [3] | Time at which the peak plasma concentration was reached ([4]; 2–50 mg/kg FMN orally administered, rats) | oral bioavailability (F) ([4]; FMN solution dissolved in 0.5% CMC-Na, rats) | clearance of FMN ([4]; intravenous administration, rats) | AUCinf [4, 7] | Cmax [4, 7] | Plasma protein binding ([5]; 50 ng/mL) | Plasma protein binding ([5]; 150 ng/mL) | FMN excreted intact [6] |
| --- | --- | --- | --- | --- | --- | --- | --- | --- | --- | --- | --- | --- | --- | --- |
| O=c1c(-c2ccc(O)cc2)coc2cc(O)ccc12 [DZN, Daidzein] | 0.0456 | 0.0342 | 0.0569 | 0.0531 | detected | 0.889 to 6.398 µM | – | – | – | – | – | – | – | – |
